The values below come from PMC5350466 (mBio, 2017).

In brackets after ≈: the same amount, converted by molar mass.

One may read the Ki as the equilibrium dissociation constant of an inhibitor or competing ligand from its target. The low end stands for higher affinity, the high end for lower affinity. In general, stoichiometry N refers to the number of molecules, sites or subunits per partner or assembly.

Experiment [1] addresses Burkholderia cenocepacia BcnA (BCAL3311) (Burkholderia cenocepacia). In words: other; competition with Nile red, PBS.
The test system of experiment [2] is BcnB. Nature of the experiment: In vitro binding of Nile red to BcnB. The conditions noted are these: 1.5 µM BcnB vs 1.5 µM BcnA. Also noted: species or system Burkholderia cenocepacia. The protocol: In vitro binding assays were performed as previously described ([23]), with a few modifications. Purified BCNs were prepared in phosphate-buffered saline (PBS, pH 7.4). Phospholipids and Nile red were prepared in DMSO. […] All spectra were corrected for background fluorescence determined from probe-into-buffer titrations. Fluorescence was measured with a Cary Eclipse fluorescence spectrophotometer (Varian) set at an excitation wavelength (λex) specific for each probe, as follows: Nile red, 550 nm; BODIPY phospholipids, 500 nm for fatty acyl BODIPY-labeled phosphocholine and 505 nm for head group BODIPY-labeled phosphoethanolamine. The emission spectrum for each probe was collected across the following wavelengths (λem): Nile red, 590 to 750 nm; BODIPY phospholipids, 510 to 665 nm. The background-corrected binding fluorescence with each probe was fitted to a one-site binding model as previously described for human AGP ([23]). The equilibrium binding affinity constant for the probe-BCN complex (Kd), the probe concentration needed to achieve half-maximum binding at equilibrium, was determined by nonlinear least-squares regression analysis of the binding isotherms with GraphPad Prism v 5.0 software (GraphPad Software, Inc.).

Experiment [3] has as its system ΔbcnA pbcnA. In words: MIC by E test. Format: cell-based, Burkholderia cenocepacia. As to conditions: 24 h.
For experiment [4], the system named is ΔbcnA pbcnA3 (Pa). Nature of the experiment: MIC by E test. The conditions noted are these: 24 h. It counts as cell-based, Burkholderia cenocepacia.
The subject of experiment [5] is ΔbcnA pbcnA (MTb). Format: cell-based, Burkholderia cenocepacia.
In experiment [6] the test system is ΔbcnA pbcnA2 (Pa). Nature of the experiment: MIC by E test. Format: cell-based, Burkholderia cenocepacia. The conditions noted are these: 24 h.
Experiment [7] deals with ΔbcnA pbcnA1 (Pa). In words: MIC by E test. Format: cell-based, Burkholderia cenocepacia. As to conditions: 24 h.
The target of experiment [8] is Burkholderia cenocepacia BcnB (BCAL3310) (Burkholderia cenocepacia). In words: SEC-MALS; proteins diluted to 1 mg/ml in 20 mM Tris (pH 7.5)-100 mM NaCl.

On to PmB nonapeptide, for which, in experiment [1], the inhibitory constant (Ki) turned out to be 5080 µM.

As to polymyxin B, the Ki in experiment [1] was 670 µM.

For `CCN(CC)c1ccc2nc3c4ccccc4c(=O)cc-3oc2c1` [Nile red], the “affinity of BcnB binding to Nile red, fold lower than that of BcnA” value in experiment [2] is given as ~ 20 fold.

As to `CC(C)(O/N=C(\C(=O)N[C@@H]1C(=O)N2C(C(=O)[O-])=C(C[n+]3ccccc3)CS[C@H]12)c1csc(N)n1)C(=O)O` [Ceftazidime, ceftazidime], the “MIC by Etest, ΔbcnA pbcnA” value in experiment [3] was found to be 8 µg/mL (≈ 14.6 µM). Besides, the “MIC by Etest, ΔbcnA pbcnA3 (Pa)” value in experiment [4] came out at 8 µg/mL (≈ 14.6 µM). For the same molecule, the “MIC by Etest, ΔbcnA pbcnA (MTb)” value in experiment [5] was 8 µg/mL (≈ 14.6 µM). Further, in experiment [6], the “MIC by Etest, ΔbcnA pbcnA2 (Pa)” value amounted to 8 µg/mL (≈ 14.6 µM). For the same molecule, the “MIC by Etest, ΔbcnA pbcnA1 (Pa)” value in experiment [7] is 8 µg/mL (≈ 14.6 µM).

Regarding `CO[C@H]1/C=C/O[C@@]2(C)Oc3c(C)c(O)c4c(O)c(c(/C=N/N5CCN(C)CC5)c(O)c4c3C2=O)NC(=O)/C(C)=C\C=C\[C@H](C)[C@H](O)[C@@H](C)[C@@H](O)[C@@H](C)[C@H](OC(C)=O)[C@@H]1C` [Rifampicin, rifampin], the “MIC by Etest, ΔbcnA pbcnA” value in experiment [3] was ≥ 64 µg/mL. The “MIC by Etest, ΔbcnA pbcnA3 (Pa)” value in experiment [4] is ≥ 64 µg/mL. For the same molecule, in experiment [5], the “MIC by Etest, ΔbcnA pbcnA (MTb)” value is ≥ 64 µg/mL. Also, the “MIC by Etest, ΔbcnA pbcnA2 (Pa)” value in experiment [6] came to 32 µg/mL (≈ 38.9 µM). In experiment [7], the “MIC by Etest, ΔbcnA pbcnA1 (Pa)” value was ≥ 64 µg/mL.

The molecule “Burkholderia cenocepacia BcnB (BCAL3310) (natural protein)” came in with a stoichiometry N in experiment [8] of 2.

As for `O=C(O)c1cn(C2CC2)c2cc(N3CCNCC3)c(F)cc2c1=O` [Cipro, ciprofloxacin], the “MIC by Etest, ΔbcnA pbcnA” value in experiment [3] worked out at 4 µg/mL (≈ 12.1 µM). The “MIC by Etest, ΔbcnA pbcnA3 (Pa)” value in experiment [4] stood at 4 µg/mL (≈ 12.1 µM). Besides, the “MIC by Etest, ΔbcnA pbcnA (MTb)” value in experiment [5] came to 4 µg/mL (≈ 12.1 µM). Also, the “MIC by Etest, ΔbcnA pbcnA2 (Pa)” value in experiment [6] is 4 µg/mL (≈ 12.1 µM). Also, the “MIC by Etest, ΔbcnA pbcnA1 (Pa)” value in experiment [7] turned out to be 4 µg/mL (≈ 12.1 µM).
